Calls of active or inactive are those of the source.
Assays:
Cytochrome P450 1A2 [1] = target: T1, Cytochrome P450 1A2 (Homo sapiens, UniProt P05177);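 further: PubChem cytochrome P450 panel assay, CYP1A2 panel member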
T1 sequence (P05177 whole entry): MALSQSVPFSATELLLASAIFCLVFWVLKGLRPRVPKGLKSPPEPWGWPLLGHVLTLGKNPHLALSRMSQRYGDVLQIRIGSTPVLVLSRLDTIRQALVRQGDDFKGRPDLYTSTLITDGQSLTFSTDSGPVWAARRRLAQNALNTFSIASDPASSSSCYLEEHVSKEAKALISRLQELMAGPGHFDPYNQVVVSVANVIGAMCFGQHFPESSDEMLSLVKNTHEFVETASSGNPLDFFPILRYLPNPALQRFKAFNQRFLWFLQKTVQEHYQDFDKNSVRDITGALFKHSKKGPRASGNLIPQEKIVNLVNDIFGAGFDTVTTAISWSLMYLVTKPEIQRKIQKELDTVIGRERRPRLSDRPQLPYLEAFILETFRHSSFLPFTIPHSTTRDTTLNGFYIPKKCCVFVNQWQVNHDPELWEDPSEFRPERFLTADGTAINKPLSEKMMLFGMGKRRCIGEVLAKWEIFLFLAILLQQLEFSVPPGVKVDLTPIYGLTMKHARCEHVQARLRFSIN

[2] = Luminescence Cell-Based Dose Confirmation HTS to Identify Activators of 5'UTR Stem-Loop Driven Alpha-Synuclein mRNA Translation in H4 Neuroglioblastoma Cells. [Related pubchem assays: 1829 (Project Summary), 1814 (Primary HTS)]; type: functional
[3] = A Cell Based Secondary Assay To Explore Cytotoxicity of Compounds that Sensitize Mycobacterium Tuberculosis to Beta-Lactam Antibiotics.; type: functional
H4 = test: Luminescence Cell-Based Dose Response HTS to Identify Activators of 5'UTR Stem-Loop Driven Prion Protein mRNA Translation in H4 Neuroglioblastoma Cells. [Related pubchem assays: 1829 (Project Summary), 1814 (Primary HTS)]; type: functional; conditions: Homo sapiens
[4] = target: T2, Microphthalmia-associated transcription factor (Homo sapiens, UniProt O75030); test: reducers of TRPM1 reporter luminescence, concentration series – cell-based, SK-MEL-5, cherry-picked, set 3, MITF inhibitor project, dose response (AID 493073); type: functional;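 further: SK-MEL-5 melanoma cells with luciferase driven by the MITF target TRPM1 promoter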
T2 sequence (O75030 whole entry): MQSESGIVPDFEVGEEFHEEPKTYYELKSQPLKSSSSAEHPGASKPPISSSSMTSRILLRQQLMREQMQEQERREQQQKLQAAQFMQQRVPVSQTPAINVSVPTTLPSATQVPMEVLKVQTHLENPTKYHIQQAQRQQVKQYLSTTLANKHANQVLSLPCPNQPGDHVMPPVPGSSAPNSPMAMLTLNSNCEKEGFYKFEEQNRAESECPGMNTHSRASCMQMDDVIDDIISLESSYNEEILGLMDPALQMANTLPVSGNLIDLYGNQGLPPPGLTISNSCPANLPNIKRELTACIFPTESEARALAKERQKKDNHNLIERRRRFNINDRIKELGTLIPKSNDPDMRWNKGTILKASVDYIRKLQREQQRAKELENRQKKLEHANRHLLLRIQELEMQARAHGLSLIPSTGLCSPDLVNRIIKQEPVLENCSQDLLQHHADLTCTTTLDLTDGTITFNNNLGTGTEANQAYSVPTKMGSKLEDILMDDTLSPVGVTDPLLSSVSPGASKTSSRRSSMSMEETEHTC

A-375 = test: MITF: Counter assay: A375 proliferation Measured in Cell-Based System Using Plate Reader - 2084-03_Inhibitor_Dose_DryPowder_Activity. [Related pubchem assays (depositor defined):AID488944]; type: functional; conditions: Homo sapiens
[5] = luciferase reporter signal suppression in cells – H4 neuroglioma cells, luminescence, dose response (AID 1990); type: functional, cell-based
[6] = Luminescence Cell-Based Dose Response HTS to Identify Inhibitors of 5'UTR Stem-Loop Driven Prion Protein mRNA Translation in H4 Neuroglioblastoma Cells. [Related pubchem assays: 1827 (Project Summary), 1813 (Primary HTS)]; type: functional
[7] = alpha-synuclein stem-loop luciferase translation blockers – H4 neuroglioma cells, luminescence, confirmation (AID 1988); type: functional, cell-based
[8] = target: T3, Replicative DNA helicase DnaB (Mycobacterium tuberculosis, UniProt P9WMR3); test: DnaB intein splicing inhibitors, dose response, biochemical, cell-free fluorescence (AID 449749); type: functional
T3 sequence (P9WMR3 whole entry): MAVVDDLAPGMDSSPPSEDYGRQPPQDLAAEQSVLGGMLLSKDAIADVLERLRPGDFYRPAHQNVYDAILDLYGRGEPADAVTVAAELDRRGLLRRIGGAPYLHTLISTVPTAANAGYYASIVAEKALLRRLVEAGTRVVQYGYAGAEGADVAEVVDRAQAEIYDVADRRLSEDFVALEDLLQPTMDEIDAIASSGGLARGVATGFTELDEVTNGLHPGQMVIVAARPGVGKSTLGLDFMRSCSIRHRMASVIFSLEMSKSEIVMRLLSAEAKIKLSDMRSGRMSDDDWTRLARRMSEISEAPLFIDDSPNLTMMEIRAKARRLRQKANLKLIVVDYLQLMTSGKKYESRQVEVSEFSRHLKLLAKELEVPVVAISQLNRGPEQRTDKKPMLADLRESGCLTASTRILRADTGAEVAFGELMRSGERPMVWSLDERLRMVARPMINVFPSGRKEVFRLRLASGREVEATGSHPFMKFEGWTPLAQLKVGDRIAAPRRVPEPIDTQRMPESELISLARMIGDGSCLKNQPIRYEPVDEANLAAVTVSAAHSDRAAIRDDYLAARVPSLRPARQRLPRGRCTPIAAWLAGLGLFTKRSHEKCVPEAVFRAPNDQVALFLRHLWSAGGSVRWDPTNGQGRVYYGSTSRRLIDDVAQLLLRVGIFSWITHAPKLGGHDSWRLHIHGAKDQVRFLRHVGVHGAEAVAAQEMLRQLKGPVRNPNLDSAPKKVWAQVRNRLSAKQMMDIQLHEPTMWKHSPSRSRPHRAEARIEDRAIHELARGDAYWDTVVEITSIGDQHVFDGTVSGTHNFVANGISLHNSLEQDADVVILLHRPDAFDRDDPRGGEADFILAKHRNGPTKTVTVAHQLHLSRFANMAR

Protein RecA = target: T4, Protein RecA (Mycobacterium tuberculosis, UniProt P9WHJ3); test: Fluorescence Cell-Free Homogeneous Dose Retest to Identify Inhibitors of RecA-Intein Splicing Activity. [Related pubchem assays (depositor defined):AID2097, AID2223, AID489010, AID492950]; type: functional
T4 sequence (P9WHJ3 whole entry): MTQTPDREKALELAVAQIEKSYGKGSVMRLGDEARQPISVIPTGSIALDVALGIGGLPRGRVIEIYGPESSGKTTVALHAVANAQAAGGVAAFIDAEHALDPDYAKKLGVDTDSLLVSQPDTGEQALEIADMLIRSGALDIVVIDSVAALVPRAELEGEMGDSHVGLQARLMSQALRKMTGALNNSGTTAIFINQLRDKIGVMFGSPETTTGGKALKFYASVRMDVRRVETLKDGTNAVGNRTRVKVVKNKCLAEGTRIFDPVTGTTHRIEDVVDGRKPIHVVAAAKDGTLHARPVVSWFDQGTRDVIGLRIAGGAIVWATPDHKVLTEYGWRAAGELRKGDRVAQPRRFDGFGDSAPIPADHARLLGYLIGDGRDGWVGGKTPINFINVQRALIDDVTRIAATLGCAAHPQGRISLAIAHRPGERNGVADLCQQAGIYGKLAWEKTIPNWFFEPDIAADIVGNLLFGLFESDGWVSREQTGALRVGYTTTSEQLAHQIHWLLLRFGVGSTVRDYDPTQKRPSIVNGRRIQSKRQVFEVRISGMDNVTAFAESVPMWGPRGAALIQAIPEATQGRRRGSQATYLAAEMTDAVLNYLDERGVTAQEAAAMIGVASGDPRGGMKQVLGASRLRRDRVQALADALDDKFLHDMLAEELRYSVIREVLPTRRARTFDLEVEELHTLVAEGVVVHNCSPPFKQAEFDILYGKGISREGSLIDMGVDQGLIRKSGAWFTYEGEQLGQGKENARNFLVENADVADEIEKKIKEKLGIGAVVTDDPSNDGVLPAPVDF

[9] = target: T5, Long-chain-fatty-acid--AMP ligase FadD28 (Mycobacterium tuberculosis, UniProt P9WQ59); test: Fluorescence polarization aasay to screen for inhibitors that compete for the binding of FadD28 to a bisubstrate Measured in Biochemical System Using Plate Reader - 2147-01_Inhibitor_Dose_CherryPick_Activity.; type: functional, Mycobacterium tuberculosis H37Rv
T5 sequence (P9WQ59 whole entry): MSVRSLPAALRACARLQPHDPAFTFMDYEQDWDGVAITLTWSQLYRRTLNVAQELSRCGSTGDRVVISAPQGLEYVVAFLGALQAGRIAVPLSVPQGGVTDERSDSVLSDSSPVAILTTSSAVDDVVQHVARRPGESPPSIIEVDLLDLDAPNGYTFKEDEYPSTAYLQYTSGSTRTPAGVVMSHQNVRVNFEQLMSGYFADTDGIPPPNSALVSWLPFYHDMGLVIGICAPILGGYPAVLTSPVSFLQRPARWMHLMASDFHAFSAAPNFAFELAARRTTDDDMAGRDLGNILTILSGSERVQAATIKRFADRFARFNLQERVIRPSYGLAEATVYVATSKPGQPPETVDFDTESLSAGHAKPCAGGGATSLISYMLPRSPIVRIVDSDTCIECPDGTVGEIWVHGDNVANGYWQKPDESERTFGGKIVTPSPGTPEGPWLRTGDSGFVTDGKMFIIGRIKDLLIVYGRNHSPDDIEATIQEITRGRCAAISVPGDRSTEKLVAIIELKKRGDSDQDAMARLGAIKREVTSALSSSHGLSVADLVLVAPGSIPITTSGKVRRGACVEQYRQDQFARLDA

Cytochrome P450 3A4 = Cytochrome P450 3A4 (Homo sapiens, UniProt P08684);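 further: CYP3A4 tested as one member of a cytochrome P450 panel screen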
Cytochrome P450 1A2 [10] = target: T1, Cytochrome P450 1A2; remark: listed apart in the source
SUMO E1/E2 = SUMO E1/E2 (Homo sapiens, UniProt P63279+Q9UBE0+Q9UBT2); test: SAR analysis of SUMOylation using HTRF in an in-Vitro dose response assay. [Related pubchem assays (depositor defined):AID2006, AID2011, AID2018, AID2069, AID2658]; type: functional
[11] = target: T6, Heat shock factor protein 1 (Mus musculus, UniProt P38532); test: decrease of HSF1-responsive luciferase luminescence – cell-based, NIH3T3, dose retest, confirmation (AID 2382); type: functional;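 further: NIH3T3 fibroblasts with HSF1-driven luciferase reporter stressed by proteasome inhibitor MG132; luminescence from HSF1-driven luciferase expression after 8 hours of MG132 stress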
T6 sequence (P38532 whole entry): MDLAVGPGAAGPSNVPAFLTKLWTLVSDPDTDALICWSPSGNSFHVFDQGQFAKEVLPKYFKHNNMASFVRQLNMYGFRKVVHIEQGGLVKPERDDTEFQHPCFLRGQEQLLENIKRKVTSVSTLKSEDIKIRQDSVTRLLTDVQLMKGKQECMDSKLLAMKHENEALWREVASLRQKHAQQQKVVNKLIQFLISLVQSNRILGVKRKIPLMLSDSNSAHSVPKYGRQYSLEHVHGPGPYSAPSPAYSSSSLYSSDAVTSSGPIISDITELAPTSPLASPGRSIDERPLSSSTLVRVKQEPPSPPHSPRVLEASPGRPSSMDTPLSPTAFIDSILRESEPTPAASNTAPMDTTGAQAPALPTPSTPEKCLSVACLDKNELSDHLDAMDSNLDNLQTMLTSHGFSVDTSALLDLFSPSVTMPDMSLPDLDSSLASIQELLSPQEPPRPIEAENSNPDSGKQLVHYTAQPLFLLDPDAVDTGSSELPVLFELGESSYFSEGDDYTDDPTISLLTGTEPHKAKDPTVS

Jurkat = test: blockers of NF-kB activation in T cells – Jurkat, luciferase reporter, luminescence, B- and T-cell, dose response (AID 489004); type: functional, cell-based; conditions: Homo sapiens;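 further: NF-kB luciferase reporter Jurkat cells stimulated with PMA plus ionomycin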
[12] = HEK-293T viability loss, compound-treated – cell-based, uHTS hits, cytotoxicity control for B/T-cell NF-kB inhibitor project, dose response (AID 489019); type: functional;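 further: IC50 reflects cytotoxicity as loss of cell viability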
Paired box protein Pax-8 = Paired box protein Pax-8 (Homo sapiens, UniProt Q06710); test: PAX8 transcriptional activity inhibition in RMG-I – RMG-I cells, luciferase, cherry-pick, dose response (AID 687027); type: functional, cell-based;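 further: luciferase reporter driven by Pax8 target thyroperoxidase promoter measured by SteadyGlo luminescence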
[13] = HGIII-sPLA2 enzyme inhibition potency – biochemical, QFRET, IC50, dose response (AID 743457);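 further: green fluorescence rise as the enzyme cleaves BODIPY PC-A2 in liposomes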
[14] = general cell-killing toxicity readout – plate reader, dry powder samples, cytotoxicity control for PAX8 inhibitor project, dose response (AID 743021); type: functional, cell-based

Cytochrome P450 3A4, sequence (P08684 whole entry): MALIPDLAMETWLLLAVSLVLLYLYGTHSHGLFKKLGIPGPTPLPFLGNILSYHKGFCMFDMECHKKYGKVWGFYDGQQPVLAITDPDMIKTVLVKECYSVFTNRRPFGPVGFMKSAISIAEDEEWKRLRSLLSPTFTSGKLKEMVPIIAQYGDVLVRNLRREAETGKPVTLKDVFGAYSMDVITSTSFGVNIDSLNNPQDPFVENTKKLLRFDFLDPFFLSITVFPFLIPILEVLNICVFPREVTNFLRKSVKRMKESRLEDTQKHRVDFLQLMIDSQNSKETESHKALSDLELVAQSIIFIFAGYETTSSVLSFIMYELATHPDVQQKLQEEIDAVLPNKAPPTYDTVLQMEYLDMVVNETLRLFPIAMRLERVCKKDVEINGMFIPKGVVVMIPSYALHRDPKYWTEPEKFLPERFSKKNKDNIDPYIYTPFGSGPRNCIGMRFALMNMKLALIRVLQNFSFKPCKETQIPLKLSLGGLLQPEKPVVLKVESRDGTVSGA
Paired box protein Pax-8, sequence (Q06710 whole entry): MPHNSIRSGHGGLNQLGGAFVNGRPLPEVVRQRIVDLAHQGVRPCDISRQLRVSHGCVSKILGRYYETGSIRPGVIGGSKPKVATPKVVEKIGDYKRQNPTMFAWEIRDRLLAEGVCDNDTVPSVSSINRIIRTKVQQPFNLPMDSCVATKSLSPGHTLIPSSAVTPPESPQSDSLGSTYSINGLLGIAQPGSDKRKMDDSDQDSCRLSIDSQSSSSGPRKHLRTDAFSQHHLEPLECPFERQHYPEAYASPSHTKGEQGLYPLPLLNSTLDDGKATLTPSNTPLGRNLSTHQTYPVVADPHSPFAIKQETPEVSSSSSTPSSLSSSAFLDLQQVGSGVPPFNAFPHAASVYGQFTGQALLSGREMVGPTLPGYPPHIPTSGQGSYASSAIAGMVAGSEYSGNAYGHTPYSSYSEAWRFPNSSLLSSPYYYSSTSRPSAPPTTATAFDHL
SUMO E1/E2, sequence (Q9UBE0 whole entry): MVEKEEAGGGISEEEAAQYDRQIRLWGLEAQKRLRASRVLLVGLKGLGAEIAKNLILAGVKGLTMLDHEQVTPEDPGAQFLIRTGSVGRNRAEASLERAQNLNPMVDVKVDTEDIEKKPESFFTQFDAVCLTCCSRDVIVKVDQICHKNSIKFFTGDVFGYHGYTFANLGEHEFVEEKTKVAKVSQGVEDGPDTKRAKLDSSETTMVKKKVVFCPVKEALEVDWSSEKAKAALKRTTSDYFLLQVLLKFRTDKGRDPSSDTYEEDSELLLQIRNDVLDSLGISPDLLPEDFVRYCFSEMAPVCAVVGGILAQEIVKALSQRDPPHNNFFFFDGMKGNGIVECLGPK
SUMO E1/E2, sequence (Q9UBT2 whole entry): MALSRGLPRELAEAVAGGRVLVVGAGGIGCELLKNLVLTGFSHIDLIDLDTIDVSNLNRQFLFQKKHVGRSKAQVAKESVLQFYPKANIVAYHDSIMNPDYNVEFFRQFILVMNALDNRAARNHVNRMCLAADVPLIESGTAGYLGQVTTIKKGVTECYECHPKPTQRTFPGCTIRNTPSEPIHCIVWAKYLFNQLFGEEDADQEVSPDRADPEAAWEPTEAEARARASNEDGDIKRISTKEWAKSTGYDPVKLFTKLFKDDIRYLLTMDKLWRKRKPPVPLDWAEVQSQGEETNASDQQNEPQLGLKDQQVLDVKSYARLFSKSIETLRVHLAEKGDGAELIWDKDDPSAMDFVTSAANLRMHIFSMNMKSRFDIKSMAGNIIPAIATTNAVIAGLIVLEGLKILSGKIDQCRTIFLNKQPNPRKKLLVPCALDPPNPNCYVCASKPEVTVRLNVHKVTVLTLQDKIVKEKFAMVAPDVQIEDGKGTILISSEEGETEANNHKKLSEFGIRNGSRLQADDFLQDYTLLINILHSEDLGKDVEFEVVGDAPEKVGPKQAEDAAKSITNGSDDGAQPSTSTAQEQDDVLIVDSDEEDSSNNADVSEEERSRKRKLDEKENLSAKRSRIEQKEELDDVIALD
SUMO E1/E2, sequence (P63279 whole entry): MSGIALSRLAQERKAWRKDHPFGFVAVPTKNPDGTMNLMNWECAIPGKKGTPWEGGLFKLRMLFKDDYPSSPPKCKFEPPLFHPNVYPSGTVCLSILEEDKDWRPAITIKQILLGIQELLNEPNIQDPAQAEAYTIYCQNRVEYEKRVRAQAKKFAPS

COc1ccc(CCN(C)CCC[C@@](C#N)(c2cc(OC)c(OC)c(OC)c2)C(C)C)cc1OC
AC50 (Cytochrome P450 1A2 [1]): inactive

O=C(CCl)N(c1ccccc1)C1CCS(=O)(=O)C1 (stereo unspecified)
EC50 [2]: > 120 µM (not active) | CC50 [3]: 6.82 µM (active) | EC50 (H4): > 120 µM (not active) | AC50 [4]: 9.35 µM (active) | AC50 (A-375): 27.7 µM (active)

O=C1C([N-]S(=O)(=O)c2cccs2)=C([n+]2ccccc2)C(=O)c2ccccc21
EC50 [5]: 12.9 µM (active) | EC50 [6]: 14.2 µM (active) | EC50 [7]: > 120 µM (not active) | AC50 [4]: 1.07 µM (active) | AC50 [8]: 10.2 µM (active) | EC50 (Protein RecA): 6.59 µM (active) | AC50 (A-375): 25.5 µM (active) | AC50 [9]: > 100 µM (inactive)

Cn1ncc2c(Nc3cccc(C(=O)O)c3)ncnc21
AC50 (Cytochrome P450 3A4): inconclusive

COC(=O)N1CCC2(CC1)CN(c1ccc(-c3ccccc3)cc1)C2
AC50 (Cytochrome P450 1A2 [10]): 1.26 µM (inconclusive) | AC50 (Cytochrome P450 3A4): inconclusive

Clc1ccc2c(c1)C1C=CCC1C(c1ccccc1)N2 (stereo unspecified)
IC50 (SUMO E1/E2): > 100 µM (inactive)

C/N=c1\scc(-c2ccccc2F)n1/N=C/c1ccc[nH]1
EC50 [11]: < 0.16 µM (active) | IC50 (Jurkat): 0.38 µM (active) | IC50 [12]: > 80 µM (inactive) | AC50 [4]: 0.019 µM (active) | AC50 (Paired box protein Pax-8): < 0.26 µM (active) | IC50 [13]: 50.6 µM (inactive) | AC50 [14]: 44.3 µM (active)

CCC(=O)O[C@H](CC(=O)[O-])C[N+](C)(C)C
AC50 (Cytochrome P450 1A2 [1]): inconclusive
